Measurements: US9835633B1, “Compositions and methods for identifying agents for treating apoE-related diseases” (The J. David Gladstone Institutes, priority 2015, dated 2017)

tested on: NSE-apoE4 primary neurons; experiment: apoE fragmentation in NSE-apoE4 primary neurons (western blot); assay type: cell-based, mouse; conditions: NSE-apoE4 primary neurons treated with compound changing Golgi pH or calcium levels
Description: To confirm that PCSK1 and PCSK2 actually contribute to neuronal cleavage of apoE observed in NSE-apoE4 primary neurons, NSE-apoE4 primary neurons were treated with lentivirus encoding either PCSK1 shRNA or PCSK2 shRNA to decrease the endogenous PCSK1 or PCSK2 levels.
Activity of both PCSK1 and PCSK2 is pH and calcium dependent. The optimum pH for PCSK1 and PCSK2 was acidic (pH 6.0 for PCSK1, pH 5.0 for PCSK2). Their activities were enriched in Golgi/trans-Golgi in neurons, which have an acidic environment. Based on this knowledge, it was hypothesized that changing the Golgi pH or calcium levels in neurons would affect PCSK1/PCSK2 activity and further regulate apoE fragmentation. To test this idea, NSE-apoE4 primary neurons were treated with Bafilomycin A, a compound that can increase Golgi pH, or Thapsigargin/2-APB, which can affect the calcium concentration in different cellular compartments.
PCSK1/PCSK2 generated similar apoE fragmentation patterns in N2A-apoE4 cells compared to NSE-apoE4 primary neurons. To determine whether PCSK1/PCSK2-generated apoE fragments are the same as those generated endogenously, lysates from N2A-apoE4 cells overexpressing either PCSK1 or PCSK2, lysates from NSE-apoE4 primary neurons, and the mixture of these two lysates, were tested. ApoE fragmentation was detected by western blot.

SMILES | apoE fragmentation after compound treatment
NCCOB(c1ccccc1)c1ccccc1 [2-APB] | decrease of apoE fragmentation
CO/C1=C\C(C)=C\[C@@H](C)[C@@H](O)[C@@H](C)C/C(C)=C/C=C/[C@H](OC)[C@@H]([C@@H](C)[C@@H](O)[C@H](C)[C@@]2(O)C[C@@H](O)[C@H](C)[C@@H](C(C)C)O2)OC1=O [Bafilomycin A] | decrease of apoE fragmentation
C/C=C(/C)C(=O)O[C@H]1C(C)=C2[C@H]([C@@H]1OC(=O)CCCCCCC)[C@@](C)(OC(C)=O)C[C@H](OC(=O)CCC)[C@@]1(O)[C@H]2OC(=O)[C@@]1(C)O [Thapsigargin] | decrease of apoE fragmentation
